According to patent US20260224524A1, “A PHARMACEUTICAL COMPOSITION TARGETING MUTANT P53 AND HER2” (DR DOZO LABORATORIES, priority 2023, published 2026):
In brackets after ≈: the same amount, converted by molar mass. Read-outs that look alike come from different tables or passages of the source.

Columns and labels:
Format in all cases: cell-based
A549 cell line [1] = assay: Cell viability test using trypan blue exclusion method against A549; details: Homo sapiens, 24 h
Procedure: For cytotoxicity studies, Test sample was considered as 100% stock and serial two-fold dilutions were prepared from 10% to 0.156% using F-12K plain media for treatment. 10 mM stock of Standard Doxorubicin was diluted from 100 μM to 1.56 μM using F-12K plain media for treatment.
(§1) A549 cells were cultured in F-12K medium with appropriate supplements in a humidified atmosphere of 5% CO2 at 37° C. until confluent. The viability of the cells was checked using conventional hemocytometer. Appropriate cell density per ml of media was prepared and seeded in a 96 well plate and incubated for 24 h at 37° C. with 5% CO2 to assess the cell viability.
• 1. The cell count was adjusted to 5×10^5 cells/ml using complete media. To each well of the 96 well microtiter plate, 100 μl of the diluted cell suspension (50,000 cells/well) was added and incubated for 24 h at 37° C. in 5% CO2 atmosphere. • 2. After 24 h, the cells were treated with various concentrations of test compound and incubated at 37° C. for 24 h in 5% CO2 atmosphere. • 3. After incubation the test solutions in the wells were discarded. • 4. Cells were trypsinized and 20 μl of cell suspension was taken for viability counting. • 5. To this 20 μl of trypan blue dye was added and mixed well. • 6. The mixture was then loaded to haemocytometer at the end of the notch with the help of pipette. • 7. Haemocytometer was kept under the inverted microscope and scored in each quadrant. • 8. Cell counting wad done according to Neubauer's rules and noted. Percentage cell viability was calculated for the obtained data using below given formulae.
Viable cells=Average viable cells*2*10^3 cells/100 μl
% Viability=Viable cells/Total cells×100

A549 cell line [2] = assay: Cytotoxicity MTT assay against A549; details: Homo sapiens; for inhibition at 1.563 µM / inhibition at 3.125 µM / inhibition at 6.25 µM / inhibition at 12.5 µM / inhibition at 25 µM / inhibition at 50 µM / inhibition at 100 µM: A549, A549
Procedure: For cytotoxicity studies, Test sample was considered as 100% stock and serial two-fold dilutions were prepared from 10% to 0.156% using F-12K plain media for treatment. 10 mM stock of Standard Doxorubicin was diluted from 100 μM to […] using F-12K plain media for treatment.
as §1
• 1. The cell count was adjusted to 5×10^5 cells/ml using complete media. To each well of the 96 well microtiter plate, 100 μl of the diluted cell suspension (50,000 cells/well) was added and incubated for 24 h at 37° C. in 5% CO2 atmosphere. • 2. After 24 h, the cells were treated with various concentrations of test compound and incubated at 37° C. for 24 h in 5% CO2 atmosphere. • 3. After incubation, the test solutions in the wells were discarded and 100 μl of MTT (5 mg/10 ml of MTT in PBS) was added to each well. The plates were incubated for 4 h at 37° C. in 5% CO2 atmosphere. • 4. The supernatants were removed and 100 μl of DMSO was added and the plates were gently shaken to solubilize the formed formazan. The absorbance was measured using a microplate reader at a wavelength of 590 nm. • 5.
% Inhibition=(OD of sample−OD of Control/OD of Control)×100

[3] = test system: Human Breast Cancer Cell Line MDA-MB-231; assay: Growth inhibition (% control growth, LC50, TGI, GI50) MDA-MB-231
Procedure: The therapeutic effect of […] (peak 5) and SA2 (peak 4) is evaluated against human […] cancer cell line MDA-MB-231 by calculating the percentage growth inhibition, drug concentration of test compound needed to inhibit cell growth by 50% (GI50) values.
The therapeutic effect of SACC is evaluated against human […] cancer cell lines MDA-MB-231 by calculating the percentage growth inhibition, drug concentration of test compound needed to inhibit cell growth by 50% (GI50) values.

[4] = test system: Human Lung Cancer Cell Line A-549; assay: Growth inhibition (% control growth, LC50, TGI, GI50) A-549; details: A-549
Procedure: The therapeutic effect of SA1 (peak 5) and SA2 (peak 4) is evaluated against human lung cancer cell line A-549 by calculating the percentage growth inhibition, drug concentration of test compound needed to inhibit cell growth by 50% (GI50) values.
The therapeutic effect of SACC is evaluated against human lung cancer cell line A-549 by calculating the percentage growth inhibition, drug concentration of test compound needed to inhibit cell growth by 50% (GI50) values.

[5] = test system: Human Pancreatic Cancer Cell Line Mia-Pa-Ca-2; assay: Growth inhibition (% control growth, LC50, TGI, GI50) Mia-Pa-Ca-2; details: Mia-Pa-Ca-2
Procedure: The therapeutic effect of SA1 (peak 5) and SA2 (peak 4) is evaluated against human pancreatic cancer cell line Mia-Pa-Ca-2 by calculating the percentage growth inhibition, drug concentration of test compound needed to inhibit cell growth by 50% (GI50) values.
The therapeutic effect of SACC is evaluated against human […] cancer cell line Mia-Pa-Ca-2 by calculating the percentage growth inhibition, drug concentration of test compound needed to inhibit cell growth by 50% (GI50) values.

[6] = test system: Human Breast Cancer Cell Line MDA-MB-231; assay: Growth inhibition (% control growth, LC50, TGI, GI50) MDA-MB-231; details: Molar drug concentrations calculated from graph
[7] = read-out: % Mean Cell Inhibition

COc1cccc2c1C(=O)c1c(O)c3c(c(O)c1C2=O)C[C@@](O)(C(=O)CO)C[C@@H]3O[C@H]1C[C@H](N)[C@H](O)[C@H](C)O1 [Doxorubicin]
viability at 1.563 µM (A549 cell line [1]; 1.563 μM): 85.5% | viability at 3.125 µM (A549 cell line [1]; 3.125 μM): 74.5% | viability at 6.25 µM (A549 cell line [1]; 6.25 μM): 66.1% | viability at 12.5 µM (A549 cell line [1]; 12.5 μM): 51.6% | viability at 25 µM (A549 cell line [1]; 25 μM): 36.5% | viability at 50 µM (A549 cell line [1]; 50 μM): 26.2% | viability at 100 µM (A549 cell line [1]; 100 μM): 11.1% | inhibition at 1.563 µM (A549 cell line [2]; n = 1, read-out: % Inhibition): 17.3% | inhibition at 1.563 µM (A549 cell line [2]; n = 2, read-out: % Inhibition): 19.6% | inhibition at 1.563 µM (A549 cell line [2]; n = 3, read-out: % Inhibition): 18.4% | inhibition at 1.563 µM (A549 cell line [2]; [7]): 18.4% | inhibition at 3.125 µM (A549 cell line [2]; n = 1, read-out: % Inhibition): 27.8% | inhibition at 3.125 µM (A549 cell line [2]; n = 2, read-out: % Inhibition): 25.6% | inhibition at 3.125 µM (A549 cell line [2]; n = 3, read-out: % Inhibition): 24.7% | inhibition at 3.125 µM (A549 cell line [2]; [7]): 26.1% | inhibition at 6.25 µM (A549 cell line [2]; n = 1, read-out: % Inhibition): 36.3% | inhibition at 6.25 µM (A549 cell line [2]; n = 2, read-out: % Inhibition): 35.9% | inhibition at 6.25 µM (A549 cell line [2]; n = 3, read-out: % Inhibition): 37.4% | inhibition at 6.25 µM (A549 cell line [2]; [7]): 36.5% | inhibition at 12.5 µM (A549 cell line [2]; n = 1, read-out: % Inhibition): 45.4% | inhibition at 12.5 µM (A549 cell line [2]; n = 2, read-out: % Inhibition): 44.2% | inhibition at 12.5 µM (A549 cell line [2]; n = 3, read-out: % Inhibition): 45.8% | inhibition at 12.5 µM (A549 cell line [2]; [7]): 45.1% | inhibition at 25 µM (A549 cell line [2]; n = 1, read-out: % Inhibition): 64.5% | inhibition at 25 µM (A549 cell line [2]; n = 2, read-out: % Inhibition): 65.2% | inhibition at 25 µM (A549 cell line [2]; n = 3, read-out: % Inhibition): 65.2% | inhibition at 25 µM (A549 cell line [2]; [7]): 65% | inhibition at 50 µM (A549 cell line [2]; n = 1, read-out: % Inhibition): 75.5% | inhibition at 50 µM (A549 cell line [2]; n = 2, read-out: % Inhibition): 74.4% | inhibition at 50 µM (A549 cell line [2]; n = 3, read-out: % Inhibition): 78.2% | inhibition at 50 µM (A549 cell line [2]; [7]): 76% | inhibition at 100 µM (A549 cell line [2]; n = 1, read-out: % Inhibition): 87.9% | inhibition at 100 µM (A549 cell line [2]; n = 2, read-out: % Inhibition): 90.3% | inhibition at 100 µM (A549 cell line [2]; n = 3, read-out: % Inhibition): 89.2% | inhibition at 100 µM (A549 cell line [2]; [7]): 89.2% | IC50 (A549 cell line [2]; A549, MTT, 24 h): 20.3 µM

Cc1cc(=O)cco1 (single isomer, unassigned) [SA1 (peak 5), 2-methyl-4H-pyran-4-one]
% Control Growth ([3]; 10^−4M, Average Values): 35.0% | % Control Growth ([3]; 10^−4M, Experiment 1): 43.7% | % Control Growth ([3]; 10^−4M, Experiment 2): 27.1% | % Control Growth ([3]; 10^−4M, Experiment 3): 34.3% | % Control Growth ([3]; 10^−5M, Average Values): 58.6% | % Control Growth ([3]; 10^−5M, Experiment 1): 75.2% | % Control Growth ([3]; 10^−5M, Experiment 2): 44.0% | % Control Growth ([3]; 10^−5M, Experiment 3): 56.4% | % Control Growth ([3]; 10^−6M, Average Values): 75.4% | % Control Growth ([3]; 10^−6M, Experiment 1): 90.3% | % Control Growth ([3]; 10^−6M, Experiment 2): 69.9% | % Control Growth ([3]; 10^−6M, Experiment 3): 66.1% | % Control Growth ([3]; 10^−7M, Average Values): 60.8% | % Control Growth ([3]; 10^−7M, Experiment 1): 75.4% | % Control Growth ([3]; 10^−7M, Experiment 2): 50.9% | % Control Growth ([3]; 10^−7M, Experiment 3): 56.0% | % Control Growth ([4]; 10^−4M, Average Values): 65.2% | % Control Growth ([4]; 10^−4M, Experiment 1): 64.0% | % Control Growth ([4]; 10^−4M, Experiment 2): 65.1% | % Control Growth ([4]; 10^−4M, Experiment 3): 66.6% | % Control Growth ([4]; 10^−5M, Average Values): 81.9% | % Control Growth ([4]; 10^−5M, Experiment 1): 86.4% | % Control Growth ([4]; 10^−5M, Experiment 2): 78.3% | % Control Growth ([4]; 10^−5M, Experiment 3): 81.1% | % Control Growth ([4]; 10^−6M, Average Values): 79.1% | % Control Growth ([4]; 10^−6M, Experiment 1): 83.6% | % Control Growth ([4]; 10^−6M, Experiment 2): 77.7% | % Control Growth ([4]; 10^−6M, Experiment 3): 75.9% | % Control Growth ([4]; 10^−7M, Average Values): 79.7% | % Control Growth ([4]; 10^−7M, Experiment 1): 80.8% | % Control Growth ([4]; 10^−7M, Experiment 2): 80.6% | % Control Growth ([4]; 10^−7M, Experiment 3): 77.6% | GI50 ([5]; Homo sapiens, MIA PaCa-2, Molar drug concentrations calculated from graph): 0.00108 µg/mL (≈ 0.00984 µM) | % Control Growth ([5]; 10^−4M, Average Values): 49.2% | % Control Growth ([5]; 10^−4M, Experiment 1): 30.0% | % Control Growth ([5]; 10^−4M, Experiment 2): 63.5% | % Control Growth ([5]; 10^−4M, Experiment 3): 54.2% | % Control Growth ([5]; 10^−5M, Average Values): 108.5% | % Control Growth ([5]; 10^−5M, Experiment 1): 97.0% | % Control Growth ([5]; 10^−5M, Experiment 2): 112.7% | % Control Growth ([5]; 10^−5M, Experiment 3): 115.9% | % Control Growth ([5]; 10^−6M, Average Values): 113.4% | % Control Growth ([5]; 10^−6M, Experiment 1): 111.0% | % Control Growth ([5]; 10^−6M, Experiment 2): 116.4% | % Control Growth ([5]; 10^−6M, Experiment 3): 112.6% | % Control Growth ([5]; 10^−7M, Average Values): 105.7% | % Control Growth ([5]; 10^−7M, Experiment 1): 108.1% | % Control Growth ([5]; 10^−7M, Experiment 2): 95.5% | % Control Growth ([5]; 10^−7M, Experiment 3): 113.5% | TGI ([5]; Molar drug concentrations calculated from graph): 0.7992 µg/mL (≈ 7.26 µM) | TGI [6]: 4.03 µg/mL (≈ 36.6 µM)
